Measured values published in patent US20220127297A1, “Novel Antibacterial 3"-Derivatives Of 4,6-Disubstituted 2,5-Dideoxystreptamine Aminoglycoside Antibiotics” (AGILeBiotics B.V., priority 2018, published 2022).
Values after ≈ are worked out from the molar mass of the structure shown.

Experiments:
E. coli ATCC25922 strain = test: MIC 50, broth micro-dilution, wild-type Escherichia coli; format: cell-based; conditions: Escherichia coli, ATCC25922, 18 h, MH2, 18 h
From the text: (§1) 3.1 Against E. coli Strains
(§2) Tested reference compounds. Amikacin sulfate (Cat. No. 01693, Chem-Impex), Gentamicin sulfate (Cat. No. G4918, Sigma Aldrich).
(§3) Microbial strains. E. coli ATCC 25922, E. coli ATCC 25922/pET-9b(+), E. coli ATCC 25922/pAT21-1, E. coli ATCC 25922/pBluescript::AAC(6′)-Ie/APH(2″)-Ia, E. coli ATCC 25922/pBlue_lpp_aacC3_rrnC, E. coli ATCC 25922/pSET152.
(§4) Culture media and equipment. BBL™ Mueller Hinton Broth 2 (Lot. BCBW1143, Cat. No. 70192, Sigma); Kanamycin A (Cat. No. A1493, AppliChem); 96-well deep well plate, 1 mL (Cat. No. 0030506.200, Eppendorf); Plate lids (Cat. No. 0030131.525, Eppendorf); 96-well plate, F-bottom (Cat. No. 781602, Brand; Incubator, Infors Multitron Pro); Laminar flow (Heraeus KS12); UV/VIS meter (Eppendorf BioPhotometer Plus); Platereader (Tecan Sunrise).
(§5) Compound preparation. Compounds were prepared in MH2 media at a concentration of 5 mM and stored at 4° C. For testing, solutions of 128 μM were prepared in MH2. Out of these working solutions, 400 μL was transferred to wells in the first column of 96-well deep well plates. Each compound was transferred in triplicate. Plates were previously filled with 200 μL of MH2 media in all wells except for the wells in the first column. After compound and antibiotic addition, the compounds were serial two-fold diluted by transferring 200 μL from the first to the second column, then from the second to the third column and so on. Finally, 200 μL was removed from the last column.
(§6) Inoculum preparation. Microorganisms used were all revived from 20% glycerol (40% v/v glycerol in water was diluted with MH2) storage at −80° C. by inoculating them in 5 mL MH2. inoculums of E. coli containing a plasmid were selected for by adding 50 μg/mL KanaA. The Inoculums were grown to an optical density (measured by UV/Vis spectroscopy) of 0.6-0.8 at 600 nm. Out of these suspensions, actual inoculums were prepared by diluting them to an optical density (OD) of 0.1 in MH2 media. From these inoculums, 200 μL was transferred to each well, resulting in a final compound concentration range of 64 μM-31.3 nM. All plates were incubated at 900 rpm and 70% rH for 18 h at 37° C.
MIC determination. After 18 h of growth, 200 μL was transferred to a 96-well F-bottom plate. The optical density was determined by a plate reader at 600 nm, with 10 s shaking before reading. Triplicate measurements were averaged, and a growth curve was plotted in Microsoft Excel. The first column in which the growth reached half the value of maximum growth was determined as the MIC50 value for that particular compound.
MIC50. The MIC50 of a compound was assigned at which the bacterial growth reached half the value of maximum growth.

E. coli (APH(3′)IIIa) = test: MIC 50, broth micro-dilution, E. coli expressing APH(3′)IIIa; format: cell-based, Escherichia coli; conditions: Escherichia coli, ATCC25922, ATCC25922 harboring plasmid encoding APH(3′)IIIa
Description: (§7) Plasmid transformation. Approximately 500 ng of the pET-9b(+) (Cat. No. 69432-3, Merck), pAT21-1 (provided by Prof. Dr. Patrice Courvalin, M.D., Pasteur Institute, France; prepared according to Trieu-Cuot et. al, Mol. Gen. Genet. 198(2), 348 (1985)), pBluescript::AAC(6′)-Ie/APH(2″)-Ia (provided by Prof. Dr. Sergei Vakulenko, M.D., University of Notre Dame, Ind., USA; prepared according to S. B. Vakulenko et. al., J. Biol. Chem. 287 (52), 43262 (2012)), pBlue_lpp_aacC3_rrnC and pSET152 (Cat. No. PVT3395, Life Science Market; prepared according to Bierman et al., Gene 116 (1), 43 (1992)) plasmids, encoding APH(3′)-Ia (SEQ ID NO:2), APH(3′)-IIIa (SEQ ID NO:3), AAC(6′)Ie-APH(2″)-Ia (SEQ ID NO:4), AAC(3)-III (SEQ ID NO:1), and AAC(3)-IV (SEQ ID NO:5) respectively, were individually incubated in a vial of competent cells for 15 min on ice. The cells were subsequently heated to 42° C. for 90 s, and cooled on ice for 1 min. After addition of 900 μL LB, the cells were incubated for 1 h at 37° C. and 200 rpm. Cells were plated on LB-agar supplemented with 50 μg/mL KanaA and incubated for 18 h at 37° C. The next day, a single colony was inoculated in 5 mL LB supplemented with 50 μg/mL and grown for 18 h at 37° C. and 200 rpm. A 200 μL sample of each culture was diluted with 200 μL of 40% v/v glycerol in water, and stored at −80° C. The plasmid was purified from the remaining culture using the Plasmid Miniprep kit. Plasmid DNA was investigated by Eurofins Genomics (Germany) to confirm the identity of the aminoglycoside resistance genes.
as §1, §2, §3, §4, §5, §6
(§8) MIC determination. After 18 h of growth, 200 μL was transferred to a 96-well F-bottom plate. The optical density was determined by a plate reader at 600 nm, with 10 s shaking before reading. Triplicate measurements were averaged, and a growth curve was plotted in Microsoft Excel. […]

[1] = test system: E. coli (AAC(6′)Ie-APH(2″)Ia); test: MIC 50, broth micro-dilution, E. coli expressing AAC(6′)Ie-APH(2″)Ia; format: cell-based, Escherichia coli; conditions: Escherichia coli, ATCC25922, ATCC25922 harboring plasmid encoding AAC(6′)Ie-APH(2″)Ia
Description: as §7, §1, §2, §3, §4, §5, §6, §8

E. coli (APH(3′)Ia) = test: MIC 50, broth micro-dilution, E. coli expressing APH(3′)Ia; format: cell-based, Escherichia coli; conditions: Escherichia coli, ATCC25922, ATCC25922 harboring plasmid encoding APH(3′)Ia
Description: as §7, §1, §2, §3, §4, §5, §6, §8

E. coli (AAC(3)IV) = test: MIC 50, broth micro-dilution, E. coli expressing AAC(3)IV; format: cell-based, Escherichia coli; conditions: Escherichia coli, ATCC25922, ATCC25922 harboring plasmid encoding AAC(3)IV
Description: as §7, §1, §2, §3, §4, §5, §6, §8

E. coli (AAC(3)III) = test: MIC 50, broth micro-dilution, E. coli expressing AAC(3)III; format: cell-based, Escherichia coli; conditions: Escherichia coli, ATCC25922, ATCC25922 harboring plasmid encoding AAC(3)III
From the text: Cloning resistant enzymes. An Escherichia coli codon optimized gene encoding AAC(3)-III (GenBank acc.nr. X55652.1; SEQ ID NO:1), including a promoter and terminator sequence, was synthesized by Integrated DNA Technologies, Belgium. The synthesized gene and pBluescript II KS(+) plasmid were digested using the restriction enzymes SacI and SalI, and purified from a 1% TBE-agarose gel using the illustra Gel Band purification kit. The purified linear plasmid and T4 DNA ligase were used to ligate aac(3)-III under control of the constitutive lipoprotein Ipp promoter and ribosomal RNA rrnC terminator, resulting in pBlue_Ipp_aacC3_rrnC.
as §7, §1, §2, §3, §4, §5
Inoculum preparation. Microorganisms used were all revived from 20% glycerol (40% v/v glycerol in water was diluted with MH2) storage at −80° C. by inoculating them in 5 mL MH2. inoculums of E. coli containing a plasmid were selected for by adding 50 μg/mL KanaA.

Compound: N=C(N)NC1[C@@H](O)C(OC2[C@@H](F)[C@H](O[C@H]3OC(CN)[C@@H](O)CC3N)C(N)C[C@H]2NC(=O)[C@@H](F)CCN)O[C@H](CO)[C@H]1O (stereo partly drawn) [ABX5034, Tobra-(AFB)-F-Gua]
- MIC50 (E. coli ATCC25922 strain): 1 µM (≈ 0.615 µg/mL)
- MIC50 (E. coli (APH(3′)IIIa)): 0.5 to 1 µM (≈ 0.307 to 0.615 µg/mL)
- MIC50 [1]: 1 µM (≈ 0.615 µg/mL)
- MIC50 (E. coli (APH(3′)Ia)): 1 µM (≈ 0.615 µg/mL)
- MIC50 (E. coli (AAC(3)IV)): 2 to 4 µM (≈ 1.23 to 2.46 µg/mL)
- MIC50 (E. coli (AAC(3)III)): 0.5 to 1 µM (≈ 0.307 to 0.615 µg/mL)
